Series [1] concerns human CB CD34^+ HSCs.
Protocol: (§1) For all samples, the cells were collected from the cartridge and placed at 37° C. for 20 minutes (recovery period). […] For the cold shocked samples, the cells were transferred to the 37° C. incubator after the 2-hour incubation period at 30° C.
(§2) For all samples, the cells were collected from the cartridge and placed at 37° C. for 20 minutes (recovery period). For the CB CD34^+ cells that were contacted with 10 μg D10A nickase RNP (per million cells), one sample was transferred to pre-warmed cytokine supplemented Stemspan-SFEM™ media and placed at 30° C. for 2 hours (cold shock recovery) or placed directly into the same media at 37° C. For the cold shocked samples, the cells were transferred to the 37° C. incubator after the 2-hour incubation period at 30° C.
(§3) CB CD34^+ cells were pre-treated with each of these stem cell viability enhancers (Table 19) for 18 hours prior to electroporation with D10A Cas9 RNP, HBB-8 and HBB-15 modified gRNAs, and 5′ and 3′ phosphorothioate-modified ssODN donor template. After electroporation, cells were replated into HSC medium containing these stem cell viability enhancers and cultured for an additional 3 days.
For a further series, the system named is HBB locus. The series can be described thus: Gene editing at the HBB locus in cord blood CD34+ HSCs (T7E1, DNA sequencing). It is filed as cell-based, human. The settings on record: CB CD34+, enhancer 18 hours before and 3 days after electroporation with D10A Cas9 RNP, HBB-8/HBB-15, Phx ssODN, UM171 35 nM, UM171/SR-1 35/40 nM, rapamycin 5 nM, OxPAPC 30 μg/mL, bafilomycin A1 1 μM, MG132 0.5 μM.

The subject of series [2] is human CB CD34^+ HSCs. The series can be described thus: Flow cytometry viability and stem cell phenotype of electroporated cord blood CD34+ cells. (In general: In flow cytometry, cells or beads pass a laser one at a time.)
Protocol: as §1, §2, §3
Series [3] has as its system human mobilized peripheral blood CD34^+ HSCs. Description: Hematopoietic colony forming cell (CFC) assay in Methocult. It is filed as cell-based. The settings on record: wild-type Cas9 and CCR5-U43 gRNA plasmid DNA; 40 nM UM171; two weeks. The text has this: […]; 345(6203):1509-1512). […] […].
To evaluate maintenance of HSC potency and differentiation potential, two weeks after plating CD34^+ HSCs in CFC assays, hematopoietic activity was quantified based on scoring the HSC progeny by enumerating the total number of hematopoietic colony forming units (CFU) and the frequencies of specific blood cell phenotypes, including: mixed myeloid/erythroid (Granulocyte-erythroid-monocyte macrophage, CFU-GEMM), myeloid (CFU-macrophage (M), granulocyte-macrophage (CFU-GM)) and erythroid (CFU-E) colonies. […].
To evaluate maintenance of HSC potency and differentiation potential, two weeks after plating CD34^+ HSCs in CFC assays, hematopoietic activity was quantified based on scoring the HSC progeny by enumerating the total number of hematopoietic colony forming units (CFU) and the frequencies of specific blood cell phenotypes, including: mixed myeloid/erythroid (Granulocyte-erythroid-monocyte macrophage, CFU-GEMM), myeloid (CFU-macrophage (M), granulocyte-macrophage (CFU-GM)) and erythroid (CFU-E) colonies. […]. […] After Nucleofection™, cells were replated into Stemspan-SFEM supplemented with SCF, TPO, FL and UM171. After overnight incubation, HSCs were replated in Stemspan-SFEM™ plus cytokines alone without UM171.
To evaluate maintenance of HSC potency and differentiation potential, two weeks after plating CD34^+ HSCs in CFC assays, hematopoietic activity was quantified based on scoring the HSC progeny by enumerating the total number of hematopoietic colony forming units (CFU) and the frequencies of specific blood cell phenotypes, including: mixed myeloid/erythroid (Granulocyte-erythroid-monocyte macrophage, CFU-GEMM), myeloid (CFU-macrophage (M), granulocyte-macrophage (CFU-GM)) and erythroid (CFU-E) colonies. CD34^+ HSCs that were Nucleofected™ CD34^+ HSCs maintained CFC potential compared to un-Nucleofected™ HSCs (Table 14).

Series [4] shares this test system. The settings on record: Nucleofection with wild type Cas9 and CCR5-U43 gRNA plasmid DNA; short-term 40 nM UM171.
Where [5] appears, read: Homo sapiens, read-out: % Viability of CD34^+ stem cells.

Read-outs that look alike come from different tables or passages of the source. Peptide text beside a SMILES is read from it. * marks the point of attachment. Cbz = O=C(OCc1ccccc1)*

Description for HBB locus: Human CD34^+ HSCs cells were isolated from freshly obtained human umbilical cord blood by ficoll gradient density centrifugation followed by MACS® (antibody conjugated immunomagnetic bead sorting) with mouse anti-human CD34^+ immunomagnetic beads using the human CD34 cell enrichment kit and LS magnetic columns from Miltenyi Biotech. […] In the afternoon of day 3, 2.5 million CD34^+ cells per sample were suspended in electroporation buffer.
In vitro transcribed capped and tailed guide gRNAs HBB-8 and HBB-15 were added at a 2:1 molar ratio (total gRNA:Cas9 protein) to 12.5 μg D10A nickase ribonucleoprotein (RNP) (5 μg RNP per million cells) to each of two samples each containing 2.5 million CB CD34^+ cells. A third CB CD34^+ cell aliquot was mixed with 25 μg D10A nickase RNP and HBB gRNAs (total gRNA:D10A ratio at 2:1).
For all samples, the cells were collected from the cartridge and placed at 37° C. for 20 minutes (recovery period). For the CB CD34^+ HSCs that were contacted with 12.5 μg D10A nickase RNP, one sample was transferred to pre-warmed cytokine supplemented Stemspan-SFEM™ media and placed at 30° C. for 2 hours (cold shock samples) or placed directly into the same media at 37° C. For the cold shocked samples, the cells were transferred to the 37° C. incubator after the 2-hour incubation period at 30° C. […] Genomic DNA was extracted from the HSCs at 48 and 72 hours after electroporation and HBB locus-specific PCR reactions were performed. The purified PCR products were analyzed for insertions/deletions (indels) in T7E1 assays and by DNA sequencing of individual clones (PCR product was transformed and subcloned into TOPO-vector, individual colonies picked, and plasmid DNA containing individual PCR products were sequenced).
Gene editing at the HBB locus was then evaluated at 72 hours after electroporation of D10A nickase RNP co-delivered with 2 gRNAs (HBB-8 and HBB-15). Briefly, gDNA was isolated from electroporated CD34^+ cells at 72 hours after electroporation, and PCR amplification of a ˜607 bp fragment of the HBB locus (which captures both of the individual genomic locations that were targeted by gRNAs HBB-8 and HBB-15) was performed. After cleanup of the HBB PCR product with AMPURE beads, insertions/deletions (indels) at the targeted genomic location were evaluated by T7E1 assay and by DNA sequencing.
Human CD34^+ HSCs cells were isolated from freshly obtained human umbilical cord blood by ficoll gradient density centrifugation followed by MACS sorting with mouse anti-human CD34^+ immunomagnetic beads. […] In the afternoon of day 3, 2.2 million CD34^+ cells per sample were suspended in electroporation buffer.
In vitro transcribed capped and tailed guide gRNAs HBB-8 and HBB-15 were added at a 2:1 molar ratio (total gRNA:Cas9 protein) to 10 μg RNP per million cells.
For all samples, the cells were collected from the cartridge and placed at 37° C. for 20 minutes (recovery period).

As for `CO/C1=C\C(C)=C\[C@@H](C)[C@@H](O)[C@@H](C)C/C(C)=C/C=C/[C@H](OC)[C@@H]([C@@H](C)[C@@H](O)[C@H](C)[C@@]2(O)C[C@@H](O)[C@H](C)[C@@H](C(C)C)O2)OC1=O` [Bafilomycin A1, reference compound], the “% Viability of CD34^+ stem cells” value in the series on human CB CD34^+ HSCs [1] was found to be 23%. Moreover, in the series with HBB locus, the “% HDR” value was determined as 0%, the “% NHEJ” value is 18% and the “% Total Gene Editing” value is 18%.

For `CC(C)C[C@@H](C=O)NC(=O)[C@H](CC(C)C)NC(=O)[C@H](CC(C)C)NC(=O)OCc1ccccc1` [MG132, benzyl (S)-4-methyl-1-((S)-4-methyl-1-((S)-4-methyl-1-oxopentan-2-ylamino)-1-oxopentan-2-ylamino)-1-oxopentan-2-ylcarbamate, reference compound] (Cbz-Leu-Leu-Leu-aldehyde), in the series on HBB locus, the “% HDR” value amounted to 0%, the “% NHEJ” value worked out at 0% and the “% Total Gene Editing” value worked out at 0%. Also, the viability at 0.5 µM in the series on human CB CD34^+ HSCs [2] (setting [5]) was 19%.

`CO[C@H]1C[C@@H]2CC[C@@H](C)[C@@](O)(O2)C(=O)C(=O)N2CCCC[C@H]2C(=O)O[C@H]([C@H](C)C[C@@H]2CC[C@@H](O)[C@H](OC)C2)CC(=O)[C@H](C)/C=C(\C)[C@@H](O)[C@@H](OC)C(=O)[C@H](C)C[C@H](C)/C=C/C=C/C=C/1C` [Rapamycin (sirolimus), Rapamycin, reference compound]: in the series with HBB locus, the “% HDR” value was 7%, the “% NHEJ” value is 46% and the “% Total Gene Editing” value was found to be 53%. In the series with human CB CD34^+ HSCs [2] (setting [5]), the viability at 0.005 µM came out at 52%.

As to `Cn1nnc(-c2ccc3c(c2)[nH]c2nc(Cc4ccccc4)nc(N[C@H]4CC[C@H](N)CC4)c23)n1` [UM171, (1r,4r)-N1-(2-benzyl-7-(2-methyl-2H-tetrazol-5-yl)-9H-pyrimido[4,5-b]indol-4-yl)cyclohexane-1,4-diamine], in series [3], the “Number of colony forming units, E (erythroid)” value is reported as 92 colony forming units per 1500 CD34^+ HSCs plated; the “Number of colony forming units, G” value is listed as 40 colony forming units per 1500 CD34^+ HSCs plated; the “Number of colony forming units, GEMM” value is given as 20 colony forming units per 1500 CD34^+ HSCs plated; the “Number of colony forming units, GM” value is recorded as 32 colony forming units per 1500 CD34^+ HSCs plated. For the same compound, in series [3], the “Number of colony forming units, M” value is on record as 64 colony forming units per 1500 CD34^+ HSCs plated and the “Number of colony forming units, Total” value was 228 colony forming units per 1500 CD34^+ HSCs plated. Also, in the series on HBB locus, the “% HDR” value is reported as 0%, the “% NHEJ” value came out at 79% and the “% Total Gene Editing” value amounted to 79%. In series [4], the “Fold-change in the number of live CD34^+ HSCs (96 hours)” value is on record as 1.5.

On to “oxidized 1-palmitoyl-2-arachidonyl-sn-glycero-3-phosphorylcholine [OxPAPC, reference compound]”, for which, in the series with HBB locus, the “% HDR” value amounted to 7%, the “% NHEJ” value was found to be 71% and the “% Total Gene Editing” value worked out at 78%. The “improvement in viability versus electroporated cells without pre-treatment” value in the series with human CB CD34^+ HSCs [2] (CB CD34+, OxPAPC 30 μg/mL pre-treatment 18 hours) was found to be 20%. Further, the “% Viability of CD34^+ stem cells” value with human CB CD34^+ HSCs [2] (CB CD34+, enhancer 18 hours before and 3 days after electroporation with D10A Cas9 RNP, HBB-8/HBB-15, Phx ssODN, UM171 35 nM, UM171/SR-1 35/40 nM, rapamycin 5 nM, OxPAPC 30 μg/mL, bafilomycin A1 1 μM, MG132 0.5 μM) stood at 64%.

As usually defined, the viability is a read-out of living cells in per cent, often relative to untreated cells.

Values taken from patent US11390884B2, “Optimized CRISPR/cas9 systems and methods for gene editing in stem cells” (Editas Medicine, Inc., priority 2015, dated 2022).
